Read-outs that look alike come from different tables or passages of the source. Numbered stars: 1 amine (or outer) side, 2 acyl side, 3 side chain; on linkers, the order of the positions; unused ones are H or OH. Bridge positions count the residues as written; N and C are the ends. Square brackets hold non-standard residues; d marks the D form. Peptide text beside a SMILES is read from it. Tartaroyl(2R,3R-(OAc)2) = CC(=O)O[C@@H](C(=O)[*:1])[C@@H](OC(C)=O)C(=O)[*:2]; Bip = N[C@@H](Cc1ccc(-c2ccccc2)cc1)C(=O)O; dPhe(4-NH2) = Nc1ccc(C[C@@H](N)C(=O)O)cc1; Phe(4-Br) = N[C@@H](Cc1ccc(Br)cc1)C(=O)O; Phe(4-NH2) = Nc1ccc(C[C@H](N)C(=O)O)cc1; d2Thi = N[C@H](Cc1cccs1)C(=O)O; GABA = NCCCC(=O)O Where only a bound is given, the exact number is not on record here.

For assay [1], the target named is T1, TNFα / TNFα receptor (TNFα R1/Fc) (Homo sapiens, UniProt P01375).
T1 construct: purchased R&D Systems
The assay can be described thus: Inhibition of binding of TNFα to the TNFα receptor (plate ELISA competition). To be noted: Table 2. The method in brief:
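Compound dilutions were preincubated 30 min at RT with 8.33 nM TNFα R1/Fc in PBST with 2% DMSO, then added to wells coated with 15 nM TNFα for 30 min. Bound receptor was detected with HRP anti-human Fc and TMB, read as A450.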

The test system of assay [2] is TNF-α (degradation of IkB in HeLa cells or A431 cells). The assay is described as follows: Human cell-based assay: inhibition of TNF-α induced degradation of IkB. To be noted: for inhibition at 5 µM: read-out: Inhibition at Various Compound Concentrations, 5 μM; for inhibition at 10 µM: read-out: Inhibition at Various Compound Concentrations, 10 μM.
The mark [3] stands for this setting: read-out: Activity (IC50, inhibition of TNFα binding to TNFα R1/Fc).
[4] abbreviates: 5 μM compound, HeLa or A431 cells.
Where [5] appears, read: 10 μM compound, HeLa or A431 cells.
The mark [6] stands for this setting: Activity (IC50, inhibition of TNFα binding to TNFα R1/Fc).

T1 sequence (P01375 77-233 limits assumed, species assumed): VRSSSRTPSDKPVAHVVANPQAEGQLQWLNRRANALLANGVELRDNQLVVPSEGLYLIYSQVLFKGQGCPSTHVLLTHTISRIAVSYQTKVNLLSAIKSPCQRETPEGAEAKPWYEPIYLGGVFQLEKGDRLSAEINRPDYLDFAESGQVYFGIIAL

`COC(=O)[C@H](CC(=O)O)NC(=O)[C@@H]1Cc2ccc(cc2)OCC(=O)N[C@@H](Cc2cccs2)C(=O)N[C@@H](Cc2ccc(-c3ccccc3)cc2)C(=O)N[C@@H](Cc2ccccc2)C(=O)N1` [Compound 327]: the IC50 in assay [1] (setting [3]) was below 10 µM. In addition, the inhibition at 5 µM in assay [2] (setting [4]) was in the range of 10 to 50%. Also, the inhibition at 10 µM in assay [2] (setting [5]) is below 10%.

Regarding `O=C1COc2ccc(cc2)C[C@@H](C(=O)N[C@@H](CCc2ccccc2)C(=O)O)NC(=O)[C@H](Cc2ccccc2)NC(=O)[C@H](Cc2ccc(-c3ccccc3)cc2)NC(=O)[C@H](Cc2cccs2)N1` [Compound 328], the IC50 in assay [1] (setting [6]) was below 10 µM. For the same compound, the inhibition at 10 µM in assay [2] was in the range of 10 to 50%.

For the compound `COC(=O)c1ccc(-c2ccc(C[C@@H]3NC(=O)[C@@H](Cc4cccs4)NC(=O)[C@H](O)[C@@H](O)C(=O)Nc4ccc(cc4)C[C@@H](C(=O)O)NC(=O)[C@@H](Cc4ccccc4)NC3=O)cc2)cc1` [Compound 332], the IC50 in assay [1] (setting [3]) was below 10 µM. Moreover, the inhibition at 5 µM in assay [2] (setting [4]) is below 10%.

For the compound `O=C(O)CCNC(=O)[C@@H]1Cc2ccc(cc2)OCC(=O)N[C@@H](Cc2cccs2)C(=O)N[C@@H](Cc2ccc(-c3ccccc3)cc2)C(=O)N[C@@H](Cc2ccccc2)C(=O)N1` [Compound 339], in assay [1] (setting [3]), the IC50 is below 10 µM. Further, in assay [2] (setting [4]), the inhibition at 5 µM is below 10%. For the same compound, the inhibition at 10 µM in assay [2] (setting [5]) was 10 to 50%.

On to `C[C@@H](NC(=O)[C@@H]1Cc2ccc(cc2)OCC(=O)N[C@@H](Cc2cccs2)C(=O)N[C@@H](Cc2ccc(-c3ccccc3)cc2)C(=O)N[C@@H](Cc2ccccc2)C(=O)N1)C(=O)O` [Compound 341], for which the IC50 in assay [1] (setting [3]) is below 10 µM. Moreover, the inhibition at 10 µM in assay [2] (setting [5]) is below 10%.

Consider `O=C1COc2ccc(cc2)C[C@@H](C(=O)N[C@@H](Cc2ccc(O)cc2)C(=O)O)NC(=O)[C@H](Cc2ccccc2)NC(=O)[C@H](Cc2ccc(-c3ccccc3)cc2)NC(=O)[C@H](Cc2cccs2)N1` [Compound 343], for which the IC50 in assay [1] (setting [3]) was below 10 µM. Besides, in assay [2] (setting [4]), the inhibition at 5 µM was below 10%. The inhibition at 10 µM in assay [2] (setting [5]) lay within 10 to 50%.

In the case of `O=C1COc2ccc(cc2)C[C@@H](C(=O)NC2(C(=O)O)CC2)NC(=O)[C@H](Cc2ccccc2)NC(=O)[C@H](Cc2ccc(-c3ccccc3)cc2)NC(=O)[C@H](Cc2cccs2)N1` [Compound 344], the IC50 in assay [1] (setting [6]) was below 10 µM. In assay [2], the inhibition at 5 µM was in the range of 10 to 50% and the inhibition at 10 µM lay within 50 to 80%.

For `O=C(O)[C@H](Cc1ccccc1)NC(=O)[C@@H]1Cc2ccc(cc2)NC(=O)[C@H](O)[C@@H](O)C(=O)N[C@H](Cc2cccs2)C(=O)N[C@@H](Cc2ccc(-c3ccccc3)cc2)C(=O)N[C@H](CCc2ccccc2)C(=O)N1` [Compound 350], in assay [1] (setting [3]), the IC50 is below 10 µM. The inhibition at 5 µM in assay [2] (setting [4]) was 10 to 50%. The inhibition at 10 µM in assay [2] (setting [5]) fell in the range of 10 to 50%.

On to `O=C1COc2ccc(cc2)C[C@@H](C(=O)O)NC(=O)[C@H](Cc2ccccc2)NC(=O)[C@H](Cc2ccc(-c3ccc(F)cc3)cc2)NC(=O)[C@H](Cc2cccs2)N1` [Compound 363], for which the IC50 in assay [1] (setting [3]) is below 10 µM. Also, in assay [2], the inhibition at 5 µM fell in the range of 50 to 80% and the inhibition at 10 µM is 10 to 50%.

Consider `COc1ccc(-c2ccc(C[C@@H]3NC(=O)[C@H](Cc4cccs4)NC(=O)COc4ccc(cc4)C[C@@H](C(=O)O)NC(=O)[C@H](Cc4ccccc4)NC3=O)cc2)cc1` [Compound 364], for which, in assay [1] (setting [3]), the IC50 is below 10 µM. In addition, in assay [2], the inhibition at 5 µM is 50 to 80% and the inhibition at 10 µM fell in the range of 10 to 50%.

Turning to `O=C1COc2ccc(cc2)C[C@@H](C(=O)O)NC(=O)[C@H](Cc2ccccc2)NC(=O)[C@H](Cc2ccc(-c3ccncc3)cc2)NC(=O)[C@H](Cc2cccs2)N1` [Compound 366], the IC50 in assay [1] (setting [3]) is below 10 µM. Moreover, in assay [2], the inhibition at 5 µM was below 10% and the inhibition at 10 µM was below 10%.

`CC(=O)NCCCC[C@@H]1NC(=O)[C@@H](Cc2ccc(-c3ccccc3)cc2)NC(=O)[C@H](Cc2cccs2)NC(=O)COc2ccc(cc2)C[C@@H](C(=O)O)NC1=O` [Compound 369]: in assay [1] (setting [3]), the IC50 lay within 10 to 30 µM. Further, the inhibition at 5 µM in assay [2] (setting [4]) is below 10%. For the same compound, the inhibition at 10 µM in assay [2] (setting [5]) is below 10%.

With `NCCCC(=O)N[C@H]1CC(=O)Nc2ccc(cc2)C[C@@H](C(=O)O)NC(=O)[C@@H](Cc2ccccc2)NC(=O)[C@H](Cc2ccc(-c3ccccc3)cc2)NC(=O)[C@@H](Cc2cccs2)NC1=O` [Compound 379] (H-[GABA]D[d2Thi][Bip][dF][Phe(4-NH2)]-OH; lactam 2-6), the IC50 in assay [1] (setting [3]) was below 10 µM. Moreover, in assay [2] (setting [4]), the inhibition at 5 µM fell in the range of 50 to 80%. Besides, the inhibition at 10 µM in assay [2] (setting [5]) is 10 to 50%.

Regarding `NCCCC(=O)N[C@@H]1CC(=O)Nc2ccc(cc2)C[C@@H](C(=O)O)NC(=O)[C@@H](Cc2ccccc2)NC(=O)[C@H](Cc2ccc(-c3ccccc3)cc2)NC(=O)[C@@H](Cc2cccs2)NC1=O` [Compound 380] (H-[GABA][dD][d2Thi][Bip][dF][Phe(4-NH2)]-OH; lactam 2-6), the IC50 in assay [1] (setting [3]) was below 10 µM. Moreover, the inhibition at 5 µM in assay [2] (setting [4]) was below 10%. Further, the inhibition at 10 µM in assay [2] (setting [5]) was below 10%.

Take `NCCCC(=O)N[C@H]1CC(=O)N[C@H](Cc2cccs2)C(=O)N[C@@H](Cc2ccc(-c3ccccc3)cc2)C(=O)N[C@H](Cc2ccccc2)C(=O)N[C@H](C(=O)O)Cc2ccc(cc2)NC1=O` [Compound 381]: in assay [1] (setting [3]), the IC50 is below 10 µM. Further, the inhibition at 5 µM in assay [2] (setting [4]) is below 10%. Also, in assay [2] (setting [5]), the inhibition at 10 µM is below 10%.

Turning to `NCCCC(=O)N[C@@H]1CC(=O)N[C@H](Cc2cccs2)C(=O)N[C@@H](Cc2ccc(-c3ccccc3)cc2)C(=O)N[C@H](Cc2ccccc2)C(=O)N[C@H](C(=O)O)Cc2ccc(cc2)NC1=O` [Compound 382], in assay [1] (setting [3]), the IC50 was below 10 µM. The inhibition at 5 µM in assay [2] (setting [4]) fell in the range of 10 to 50%. Further, in assay [2] (setting [5]), the inhibition at 10 µM is below 10%.

In the case of `C[C@@H](NC(=O)[C@@H]1Cc2ccc(cc2)OCC(=O)N[C@@H](Cc2cccs2)C(=O)N[C@H](Cc2ccc(-c3ccccc3)cc2)C(=O)N[C@@H](Cc2ccccc2)C(=O)N1)C(=O)O` [Compound 384], the IC50 in assay [1] (setting [3]) is below 10 µM. Moreover, the inhibition at 5 µM in assay [2] (setting [4]) is below 10%. In addition, the inhibition at 10 µM in assay [2] (setting [5]) was below 10%.

With `C[C@H](NC(=O)[C@@H]1Cc2ccc(cc2)OCC(=O)N[C@@H](Cc2cccs2)C(=O)N[C@H](Cc2ccc(-c3ccccc3)cc2)C(=O)N[C@@H](Cc2ccccc2)C(=O)N1)C(=O)O` [Compound 385], the IC50 in assay [1] (setting [3]) was below 10 µM. The inhibition at 5 µM in assay [2] (setting [4]) was in the range of 50 to 80%. Besides, in assay [2] (setting [5]), the inhibition at 10 µM is above 80%.

As to `O=C(O)CCCNC(=O)[C@@H]1Cc2ccc(cc2)OCC(=O)N[C@@H](Cc2cccs2)C(=O)N[C@H](Cc2ccc(-c3ccccc3)cc2)C(=O)N[C@@H](Cc2ccccc2)C(=O)N1` [Compound 386], the IC50 in assay [1] (setting [3]) was below 10 µM. For the same compound, in assay [2] (setting [4]), the inhibition at 5 µM is below 10%. Also, the inhibition at 10 µM in assay [2] (setting [5]) was below 10%.

On to `COC(=O)[C@H](CC(=O)O)NC(=O)[C@@H]1Cc2ccc(cc2)OCC(=O)N[C@@H](Cc2cccs2)C(=O)N[C@H](Cc2ccc(-c3ccccc3)cc2)C(=O)N[C@@H](Cc2ccccc2)C(=O)N1` [Compound 388], for which the IC50 in assay [1] (setting [3]) is below 10 µM. Also, the inhibition at 5 µM in assay [2] (setting [4]) is below 10%. Also, in assay [2] (setting [5]), the inhibition at 10 µM was 10 to 50%.

Regarding `O=C1COc2ccc(cc2)C[C@@H](C(=O)NCCO)NC(=O)[C@H](Cc2ccccc2)NC(=O)[C@@H](Cc2ccc(-c3ccccc3)cc2)NC(=O)[C@H](Cc2cccs2)N1` [Compound 390], in assay [1] (setting [6]), the IC50 is below 10 µM. In assay [2], the inhibition at 5 µM was below 10% and the inhibition at 10 µM was 50 to 80%.

`O=C1COc2ccc(cc2)C[C@@H](C(=O)NC2(C(=O)O)CC2)NC(=O)[C@H](Cc2ccccc2)NC(=O)[C@@H](Cc2ccc(-c3ccccc3)cc2)NC(=O)[C@H](Cc2cccs2)N1` [Compound 391] returned an IC50 in assay [1] (setting [6]) below 10 µM. Further, in assay [2], the inhibition at 5 µM lay within 10 to 50% and the inhibition at 10 µM lay in the range of 10 to 50%.

Consider `O=C(O)CCCCCNC(=O)[C@@H]1Cc2ccc(cc2)OCC(=O)N[C@H](Cc2cccs2)C(=O)N[C@@H](Cc2ccc(-c3ccccc3)cc2)C(=O)N[C@H](CCc2ccccc2)C(=O)N1` [Compound 395], for which, in assay [1] (setting [3]), the IC50 was below 10 µM. For the same compound, the inhibition at 5 µM in assay [2] (setting [4]) is below 10%. The inhibition at 10 µM in assay [2] (setting [5]) is below 10%.

As to `O=C1COc2ccc(cc2)C[C@@H](C(=O)O)NC(=O)[C@H](Cc2ccccc2)NC(=O)[C@H](Cc2ccc(-c3ccc(C(=O)OCc4ccccc4)cc3)cc2)NC(=O)[C@H](Cc2cccs2)N1` [Compound 396], in assay [1] (setting [3]), the IC50 is below 10 µM. Also, in assay [2], the inhibition at 5 µM was in the range of 10 to 50% and the inhibition at 10 µM lay within 50 to 80%.

As for `CC(=O)O[C@H]1C(=O)Nc2ccc(cc2)C[C@H](C(=O)N[C@@H](Cc2ccccc2)C(=O)O)NC(=O)[C@@H](Cc2ccccc2)NC(=O)[C@H](Cc2ccc(Br)cc2)NC(=O)[C@@H](Cc2cccs2)NC(=O)[C@@H]1OC(C)=O` [Compound 410] ([d2Thi][Phe(4-Br)][dF][dPhe(4-NH2)]F-OH; linker N-4 via Tartaroyl(2R,3R-(OAc)2)), in assay [1] (setting [3]), the IC50 was below 10 µM. In addition, the inhibition at 5 µM in assay [2] (setting [4]) was below 10%. Also, the inhibition at 10 µM in assay [2] (setting [5]) lay within 10 to 50%.

Values taken from US8338565B2, “Macrocyclic compounds for inhibition of tumor necrosis factor alpha” (Ensemble Therapeutics Corporation, priority 2008, dated 2012).
